In ChEMBL document CHEMBL1201862, “PubChem BioAssay data set” (2004):
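Tested at 5 concentrations; 48 h exposure; 96-well plates; endpoints linearly interpolated, else capped at highest concentration. Abbreviation: GI50, concentration required for 50% inhibition of growth.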 The source made the active and inactive calls. Rule as the data show it: active = GI50 up to about 1.1 µM and inactive = higher.

Tests used:
Test in all cases: NCI anticancer screen, dose series, 48 h
786-0 = tested on: 786-0
A498 = tested on: A498
A549 = tested on: A549
ACHN = tested on: ACHN
CAKI-1 = tested on: CAKI-1
CCRF-CEM = tested on: CCRF-CEM
COLO 205 = tested on: COLO 205
DLD-1 = tested on: DLD-1
DMS-114 = tested on: DMS-114
DMS-273 = tested on: DMS-273
EKVX = tested on: EKVX
HCC 2998 = tested on: HCC 2998
HCT-116 = tested on: HCT-116
HL-60 = tested on: HL-60
HOP-18 = tested on: HOP-18
HOP-62 = tested on: HOP-62
HOP-92 = tested on: HOP-92
HT-29 = tested on: HT-29
IGROV-1 = tested on: IGROV-1
K562 = tested on: K562
KM12 = tested on: KM12
LOX IMVI = tested on: LOX IMVI
LXFL 529 = tested on: LXFL 529
M14 = tested on: M14
M19-MEL = tested on: M19-MEL
MOLT-4 = tested on: MOLT-4
Malme-3M = tested on: Malme-3M
NCI-H226 = tested on: NCI-H226
NCI-H23 = tested on: NCI-H23
NCI-H460 = tested on: NCI-H460
NCI-H522 = tested on: NCI-H522
OVCAR-3 = tested on: OVCAR-3
OVCAR-4 = tested on: OVCAR-4
OVCAR-5 = tested on: OVCAR-5
OVCAR-8 = tested on: OVCAR-8
RPMI-8226 = tested on: RPMI-8226
RXF 393 = tested on: RXF 393
RXF 631 = tested on: RXF 631
SF-268 = tested on: SF-268
SF-295 = tested on: SF-295
SF-539 = tested on: SF-539
SK-MEL-28 = tested on: SK-MEL-28
SK-MEL-2 = tested on: SK-MEL-2
SK-MEL-5 = tested on: SK-MEL-5
SK-OV-3 = tested on: SK-OV-3
SN12C = tested on: SN12C
SNB-19 = tested on: SNB-19
SNB-75 = tested on: SNB-75
SR = tested on: SR
SW-620 = tested on: SW-620
TK-10 = tested on: TK-10
U-251 = tested on: U-251
UACC-257 = tested on: UACC-257
UACC-62 = tested on: UACC-62
UO-31 = tested on: UO-31
XF498 = tested on: XF498

Measured: GI50

C[C@H]1CC(=O)C2=CCCC3(SCCCS3)[C@@H]2[C@H]1CO
inactive: 786-0 > 100 µM | A498 > 100 µM | A549 > 100 µM | ACHN > 100 µM | CAKI-1 > 100 µM | CCRF-CEM 26.9 µM | COLO 205 > 100 µM | DLD-1 > 100 µM | DMS-114 > 100 µM | DMS-273 > 100 µM | EKVX > 100 µM | HCC 2998 > 100 µM | HCT-116 89.5 µM | HL-60 27.1 µM | HOP-18 > 100 µM | HOP-62 > 100 µM | HOP-92 > 100 µM | HT-29 > 100 µM | IGROV-1 > 100 µM | K562 47.1 µM | KM12 > 100 µM | LOX IMVI > 100 µM | LXFL 529 > 100 µM | M14 > 100 µM | M19-MEL 78.5 µM | MOLT-4 44.9 µM | Malme-3M > 100 µM | NCI-H226 > 100 µM | NCI-H23 > 100 µM | NCI-H460 > 100 µM | NCI-H522 > 100 µM | OVCAR-3 > 100 µM | OVCAR-4 > 100 µM | OVCAR-5 > 100 µM | OVCAR-8 > 100 µM | RPMI-8226 70.8 µM | RXF 393 > 100 µM | RXF 631 > 100 µM | SF-268 > 100 µM | SF-295 > 100 µM | SF-539 > 100 µM | SK-MEL-28 > 100 µM | SK-MEL-2 > 100 µM | SK-MEL-5 > 100 µM | SK-OV-3 > 100 µM | SN12C > 100 µM | SNB-19 > 100 µM | SNB-75 > 100 µM | SR 54.3 µM | SW-620 > 100 µM | TK-10 > 100 µM | U-251 91.4 µM | UACC-257 > 100 µM | UACC-62 > 100 µM | UO-31 > 100 µM | XF498 > 100 µM
